Data taken from patent US20170240556A1, “BIFLUORODIOXALANE-AMINO-BENZIMIDAZOLE KINASE INHIBITORS FOR THE TREATMENT OF CANCER, AUTOIMMUNEINFLAMMATION AND CNS DISORDERS” (4SC DISCOVERY GMBH, priority 2012, published 2017).
Where two headings read alike, the source gives them in different places.

Assays:
Experiment in all cases: Proliferation Assay
Type in all cases: cell-based
[1] = test system: HT1080 (connective tissue); settings: Homo sapiens, HT-1080, 72 h, read-out: IC50 inhibition of cell growth
Experimental: (§1) For the determination of the inhibitory capacity of compounds of the present invention (in the following: “test compound(s)”) on cell growth, cancer cells were seeded into microtitre plates, treated with different concentrations of test compound or left untreated, and after 72 h the protein content was determined as an equivalent for the cell number.
(§2) Test compounds were dissolved in 100% DMSO and predilutions in cell culture medium were prepared with a final concentration of 0.1% DMSO in medium. The cell culture medium for dilution of the test compounds, consecutive culturing of cell lines and usage during the assay was a cell line specific medium as recommended by the cell line supplier and identical for all three applications mentioned above. After a 24-hour pre-growth period of the seeded cancer cells, the test compound containing media or medium containing 0.1% DMSO as control was added to the cells. The cells were allowed to grow at 37° C. for 72 hours. In addition, all experiments contained a few plates with cells that were processed for measurement immediately after the 24 hours recovery period. These plates contained information about the cell number that existed before treatment, at time zero, and served to calculate the cytotoxicity and/or growth inhibitory effects.
(§3) After treatment, cells were precipitated by addition of 10% TCA (trichloracetic acid). Prior to fixation, the media was aspirated. After an hour of incubation at 4° C. the plates were washed twice with 400 μl of deionized water. Cells were then stained with 100 μl of a 0.08% wt/v SRB (sulforhodamine). The plates were allowed to sit for at least 30 min and washed six times with 1% acetic acid to remove unbound staining agent. The plates were left to dry at room temperature and bound SRB was solubilized with 100 μl of 10 mM Tris base. Measurement of optical density was performed at 560 nm on a Victor 2 plate reader (Perkin Elmer, Germany).
(§4) One common way to express the effect of an anticancer agent is to measure cell viability and survival in the presence of the test agent as % Treated/Control×100. The relationship between the viability and dose is called a dose response curve. Those dose response curves were determined by using algorithms developed by Oncolead GmbH & Co. KG, Munich, Germany, that can be compared to commercial applications, e.g. XLfit™ (ID Business Solutions Ltd., Guildford, UK) algorithm “205”.

SKBR3 (breast) = settings: Homo sapiens, SK-BR-3, 72 h, read-out: IC50 inhibition of cell growth
Experimental: as §1, §2, §3, §4

NCIH460 (lung) = settings: Homo sapiens, NCI-H460, 72 h, read-out: IC50 inhibition of cell growth
Experimental: as §1, §2, §3, §4

HEPG2 (liver) = settings: Homo sapiens, 72 h, read-out: IC50 inhibition of cell growth
Experimental: as §1, §2, §3, §4

ACHN (kidney) = settings: Homo sapiens, 72 h, read-out: IC50 inhibition of cell growth
Experimental: as §1, §2, §3, §4

U87MG (brain) = settings: Homo sapiens, U-87 MG, 72 h, read-out: IC50 inhibition of cell growth
Experimental: as §1, §2, §3, §4

U2OS (bone) = settings: Homo sapiens, 72 h, read-out: IC50 inhibition of cell growth
Experimental: as §1, §2, §3, §4

EFO21 (ovary) = settings: Homo sapiens, EFO-21, 72 h, read-out: IC50 inhibition of cell growth
Experimental: as §1, §2, §3, §4

SKHEP1 (liver) = settings: Homo sapiens, SK-HEP1, 72 h, read-out: IC50 inhibition of cell growth
Experimental: as §1, §2, §3, §4

SW620 (colon) = settings: Homo sapiens, SW-620, 72 h, read-out: IC50 inhibition of cell growth
Experimental: as §1, §2, §3, §4

RDES (bone) = settings: RD-ES, 72 h, read-out: IC50 inhibition of cell growth
Experimental: as §1, §2, §3, §4

5637 (bladder) = settings: 72 h, read-out: IC50 inhibition of cell growth
Experimental: as §1, §2, §3, §4

JIMT1 (breast) = settings: Homo sapiens, JIMT-1, 72 h, read-out: IC50 inhibition of cell growth
Experimental: as §1, §2, §3, §4

HEK293 (kidney) = settings: Homo sapiens, 72 h, read-out: IC50 inhibition of cell growth
Experimental: as §1, §2, §3, §4

BT20 (breast) = settings: Homo sapiens, BT-20, 72 h, read-out: IC50 inhibition of cell growth
Experimental: as §1, §2, §3, §4

COLO205 (colon) = settings: Homo sapiens, COLO 205, 72 h, read-out: IC50 inhibition of cell growth
Experimental: as §1, §2, §3, §4

HELA (cervix) = settings: Homo sapiens, 72 h, read-out: IC50 inhibition of cell growth
Experimental: as §1, §2, §3, §4

SKOV3 (ovary) = settings: Homo sapiens, SK-OV-3, 72 h, read-out: IC50 inhibition of cell growth
Experimental: as §1, §2, §3, §4

NCIH82 (lung) = settings: Homo sapiens, NCI-H82, 72 h, read-out: IC50 inhibition of cell growth
Experimental: as §1, §2, §3, §4

UMUC3 (bladder) = settings: Homo sapiens, 72 h, read-out: IC50 inhibition of cell growth
Experimental: as §1, §2, §3, §4

SKMEL5 (skin) = settings: Homo sapiens, SK-MEL-5, 72 h, read-out: IC50 inhibition of cell growth
Experimental: as §1, §2, §3, §4

PANC1 (pancreas) = settings: Homo sapiens, PANC-1, 72 h, read-out: IC50 inhibition of cell growth
Experimental: as §1, §2, §3, §4

C33A (cervix) = settings: Homo sapiens, C-33-A, 72 h, read-out: IC50 inhibition of cell growth
Experimental: as §1, §2, §3, §4

OVCAR4 (ovary) = settings: Homo sapiens, OVCAR-4, 72 h, read-out: IC50 inhibition of cell growth
Experimental: as §1, §2, §3, §4

PANC1005 (pancreas) = settings: Homo sapiens, 72 h, read-out: IC50 inhibition of cell growth
Experimental: as §1, §2, §3, §4

Measured: IC50

COc1cccc(C(=O)Nc2nc3cc4c(cc3[nH]2)OC(F)(F)O4)c1 [Compound 56, N-(2,2-difluoro-5H-[1,3]dioxolo[4′,5′:4,5]benzo[1,2-d]imidazol-6-yl)-3-methoxybenzamide]
≤ 100 nM: SKMEL5 (skin); SKMELS (skin)
≤ 1000 nM: [1] | SKBR3 (breast) | NCIH460 (lung) | HEPG2 (liver) | ACHN (kidney) | U87MG (brain) | U2OS (bone) | EFO21 (ovary) | SKHEP1 (liver) | SW620 (colon) | RDES (bone) | 5637 (bladder) | JIMT1 (breast) | HEK293 (kidney) | BT20 (breast) | COLO205 (colon) | HELA (cervix) | SKOV3 (ovary) | NCIH82 (lung) | UMUC3 (bladder) | SKMEL5 (skin); SKMEL5 (skin) | PANC1 (pancreas) | C33A (cervix) | OVCAR4 (ovary) | PANC1005 (pancreas)
